Consider twelve molecules from patent US4638070A, “Heterocyclic amino-alcohol derivatives” (Continental Pharma, priority 1980, dated 1987).

Experiment [1] relates to guinea-pig ileum (histamine contractions). The experiment is described as follows: Antispasmodic activity in vitro, contractions caused by histamine. Conditions: added 15 minutes before spasm-producing agent. On the procedure: (§1) (4) The antispasmodic activity was measured in vitro, on guinea-pig ileum, the contractions of which were caused by histammne (Hist.), acetylcholine (Achol) or barium chloride (BaCl2). The tested products were added to perfusion bath 15 minutes before the spasm-producing agents.
(§2) The dose is given in micograms (μg) per ml of bath causing complete spasm inhibition.

The subject of experiment [2] is femoral artery. The experiment is described as follows: Vasodilator activity, femoral artery (technique of perfused paw). The experiment is classed as in vivo. Set-up: key: O: no action; +: slight activity; ++: effect equal to half the effect of papaverine; +++: effect equal to that of papaverine; ++++: effect higher than that of papaverine. Conditions: intra-arterial, 30 mg/kg, anaesthetized dog, vs papaverine at same dose. How it is done:
(3) The vasodilator activity was measured at the level of femoral artery on anaesthetized dog (technique of perfused paw). The tested substances were given intra-arterially at the rate of 30 mg/kg. Results are expressed with respect to papaverine tested at the same dose.
++: effect equal to half the effect of papaverine.
+++: effect equal to that of papaverine.
++++: effect higher than that of papaverine.

The subject of experiment [3] is guinea-pig ileum (acetylcholine contractions). The experiment is described as follows: Antispasmodic activity in vitro, contractions caused by acetylcholine. Conditions: added 15 minutes before spasm-producing agent. On the procedure:
as §1, §2

Experiment [4] has as its system unanaesthetized, hypertension-suffering rat. The experiment is described as follows: Antihypertensive activity (systolic arterial pressure), oral. Format: in vivo. Conditions: 60 mg/kg, hypertensive rat, 3 hours. On the procedure: (2) The antihypertensive activity was measured on unanaesthetized, hypertension-suffering rat. The tested substances were orally given at a rate of 60 mg/kg. The systolic arterial pressure was measured every 30 minutes for 2 hours before and for 3 hours after the tested product was given. Results are expressed as follows: […]
O: no reduction of arterial pressure.
+: reduction lower than 10 mm Hg.
++: reduction of 10 to 20 mm Hg.
+++: reduction higher than 20 mm Hg.

For `CC1Cc2cc(C(O)C(C)NCCCc3ccccc3)ccc2O1` (stereo not drawn) [No 69], in experiment [1], the “ANTISPASMODIC ACTIVITY HIST. (dose causing complete spasm inhibition)” value is listed as 8.3 μg per ml. For the same molecule, the “VASODILATOR ACTIVITY” value in experiment [2] was “++”. Further, the “ANTISPASMODIC ACTIVITY ACHOL (dose causing complete spasm inhibition)” value in experiment [3] was found to be 16.7 μg per ml. The “ANTIHYPERTENSIVE ACTIVITY” value in experiment [4] is given as “+++ (reduction higher than 20 mm Hg)”.

Take `Cc1ccc(CCNC(C)C(O)c2ccc3c(c2)CC(C)S3)cc1` (stereo not drawn) [No 71]: in experiment [1], the “ANTISPASMODIC ACTIVITY HIST. (dose causing complete spasm inhibition)” value is listed as 0.8 μg per ml. Further, the “VASODILATOR ACTIVITY” value in experiment [2] is given as “+++”. Moreover, the “ANTISPASMODIC ACTIVITY ACHOL (dose causing complete spasm inhibition)” value in experiment [3] was determined as 0.8 μg per ml. Moreover, the “ANTIHYPERTENSIVE ACTIVITY” value in experiment [4] is reported as “+++ (reduction higher than 20 mm Hg)”.

Consider `CCCCOCCCNC(C)C(O)c1ccc2c(c1)CC(C)O2` (stereo not drawn) [No 74], for which the “ANTISPASMODIC ACTIVITY HIST. (dose causing complete spasm inhibition)” value in experiment [1] was 8.3 μg per ml. For the same molecule, the “VASODILATOR ACTIVITY” value in experiment [2] is on record as “++”. Also, in experiment [3], the “ANTISPASMODIC ACTIVITY ACHOL (dose causing complete spasm inhibition)” value came out at 8.3 μg per ml. Moreover, the “ANTIHYPERTENSIVE ACTIVITY” value in experiment [4] is on record as “+ (reduction lower than 10 mm Hg)”.

As to `COCCOCCCNC(C)C(O)c1ccc2c(c1)CCCS2` (stereo not drawn) [No 81], in experiment [1], the “ANTISPASMODIC ACTIVITY HIST. (dose causing complete spasm inhibition)” value is given as 16.7 μg per ml. In experiment [2], the “VASODILATOR ACTIVITY” value is “++”. For the same molecule, the “ANTISPASMODIC ACTIVITY ACHOL (dose causing complete spasm inhibition)” value in experiment [3] is reported as 16.7 μg per ml. In addition, in experiment [4], the “ANTIHYPERTENSIVE ACTIVITY” value is listed as “+++ (reduction higher than 20 mm Hg)”.

Regarding `CC(NCCOc1ccc(C#N)cc1)C(O)c1ccc2c(c1)CCS2` (stereo not drawn) [No 85], in experiment [1], the “ANTISPASMODIC ACTIVITY HIST. (dose causing complete spasm inhibition)” value is given as 8.3 μg per ml. For the same molecule, in experiment [2], the “VASODILATOR ACTIVITY” value was “+++”. The “ANTISPASMODIC ACTIVITY ACHOL (dose causing complete spasm inhibition)” value in experiment [3] is on record as 16.7 μg per ml. In experiment [4], the “ANTIHYPERTENSIVE ACTIVITY” value is “+++ (reduction higher than 20 mm Hg)”.

With `Cc1ccc(CCCCNC(C)C(O)c2ccc3c(c2)CC(C)O3)cc1` (stereo not drawn) [No 90], the “ANTISPASMODIC ACTIVITY HIST. (dose causing complete spasm inhibition)” value in experiment [1] is 0.8 μg per ml. For the same molecule, the “VASODILATOR ACTIVITY” value in experiment [2] is given as “++++”. Also, the “ANTISPASMODIC ACTIVITY ACHOL (dose causing complete spasm inhibition)” value in experiment [3] worked out at 1.7 μg per ml. Moreover, the “ANTIHYPERTENSIVE ACTIVITY” value in experiment [4] is recorded as “+++ (reduction higher than 20 mm Hg)”.

As for `CCCCCCCCNC(C)C(O)c1ccc2c(c1)SCCS2` (stereo not drawn) [No 101], the “ANTISPASMODIC ACTIVITY HIST. (dose causing complete spasm inhibition)” value in experiment [1] stood at 0.8 μg per ml. In addition, the “VASODILATOR ACTIVITY” value in experiment [2] is “+++”. The “ANTISPASMODIC ACTIVITY ACHOL (dose causing complete spasm inhibition)” value in experiment [3] was 0.8 μg per ml. In experiment [4], the “ANTIHYPERTENSIVE ACTIVITY” value is recorded as “++ (reduction of 10 to 20 mm Hg)”.

For the molecule `CC(C(O)c1ccc2c(c1)CCCS2)N1CCOC(c2ccccc2)C1C` (stereo not drawn) [No 110], in experiment [1], the “ANTISPASMODIC ACTIVITY HIST. (dose causing complete spasm inhibition)” value was determined as 0.8 μg per ml. For the same molecule, the “VASODILATOR ACTIVITY” value in experiment [2] came to 0. In experiment [3], the “ANTISPASMODIC ACTIVITY ACHOL (dose causing complete spasm inhibition)” value is on record as 3.3 μg per ml. Besides, the “ANTIHYPERTENSIVE ACTIVITY” value in experiment [4] is on record as “+ (reduction lower than 10 mm Hg)”.

With `CC(=O)OC(c1ccc2c(c1)CCS2)C(C)NCCCCc1ccccc1` (stereo not drawn) [No 112], the “ANTISPASMODIC ACTIVITY HIST. (dose causing complete spasm inhibition)” value in experiment [1] was determined as 0.3 μg per ml. For the same molecule, in experiment [2], the “VASODILATOR ACTIVITY” value is “+++”. The “ANTISPASMODIC ACTIVITY ACHOL (dose causing complete spasm inhibition)” value in experiment [3] worked out at 3.3 μg per ml. Also, the “ANTIHYPERTENSIVE ACTIVITY” value in experiment [4] is on record as “+++ (reduction higher than 20 mm Hg)”.

`Cc1ccc(CCCCNC(C)C(O)c2ccc3c(c2)CCC3)cc1` (stereo not drawn) [No 166]: the “ANTISPASMODIC ACTIVITY HIST. (dose causing complete spasm inhibition)” value in experiment [1] worked out at 0.8 μg per ml. Further, the “VASODILATOR ACTIVITY” value in experiment [2] is listed as “+++”. Further, in experiment [3], the “ANTISPASMODIC ACTIVITY ACHOL (dose causing complete spasm inhibition)” value amounted to 0.8 μg per ml. Also, the “ANTIHYPERTENSIVE ACTIVITY” value in experiment [4] is recorded as “++ (reduction of 10 to 20 mm Hg)”.

Turning to `CC(NCCCCc1ccccc1)C(O)c1ccc2c(c1)CCCC2` (stereo not drawn) [No 171], the “ANTISPASMODIC ACTIVITY HIST. (dose causing complete spasm inhibition)” value in experiment [1] turned out to be 0.8 μg per ml. The “VASODILATOR ACTIVITY” value in experiment [2] is “+++”. Further, the “ANTISPASMODIC ACTIVITY ACHOL (dose causing complete spasm inhibition)” value in experiment [3] is on record as 0.8 μg per ml. Also, in experiment [4], the “ANTIHYPERTENSIVE ACTIVITY” value is listed as “+ (reduction lower than 10 mm Hg)”.

As to `CC(NCCCC(=O)c1ccc(F)cc1)C(O)c1ccc2c(c1)CCC2` (stereo not drawn) [No 175], in experiment [1], the “ANTISPASMODIC ACTIVITY HIST. (dose causing complete spasm inhibition)” value amounted to 0.8 μg per ml. Further, the “VASODILATOR ACTIVITY” value in experiment [2] was “++”. In experiment [3], the “ANTISPASMODIC ACTIVITY ACHOL (dose causing complete spasm inhibition)” value is 0.8 μg per ml. The “ANTIHYPERTENSIVE ACTIVITY” value in experiment [4] is listed as “+++ (reduction higher than 20 mm Hg)”.
